Test results as given in PubChem BioAssay (NCI).
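96-well plates; 48 h exposure; 5 concentrations. Endpoints by linear interpolation between flanking doses. Not reached: highest tested concentration assigned. The concentration for 50% growth inhibition is given as GI50. TGI denotes the concentration required for complete inhibition of growth.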

How the values were obtained:
Experiment in all cases: NCI-60 cell line screen, 48 h
[1] = system: SNB-19 CNS
[2] = system: OVCAR-3 ovarian
[3] = system: CAKI-1 renal
[4] = system: MDA-MB-435
[5] = system: HCT-116 colon
[6] = system: RXF 393 renal
[7] = system: TK-10 renal
[8] = system: IGROV1 ovarian
[9] = system: A498 renal
[10] = system: UO-31 renal
[11] = system: COLO 205 colon
[12] = system: KM12 colon
[13] = system: RPMI-8226 leukemia
[14] = system: UACC-62 melanoma
[15] = system: HT29 colon
[16] = system: NCI/ADR-RES ovarian
[17] = system: K-562 leukemia
[18] = system: SF-295 CNS
[19] = system: NCI-H226 lung
[20] = system: MOLT-4 leukemia
[21] = system: EKVX NSCLC
[22] = system: PC-3 prostate
[23] = system: DU-145 prostate
[24] = system: NCI-H23 lung
[25] = system: SK-MEL-28 melanoma
[26] = system: BT-549 breast
[27] = system: SF-539 CNS
[28] = system: OVCAR-5 ovarian
[29] = system: SK-MEL-5 melanoma
[30] = system: HL-60(TB) leukemia
[31] = system: A549 NSCLC
[32] = system: T-47D breast
[33] = system: SW-620 colon
[34] = system: UACC-257 melanoma
[35] = system: CCRF-CEM leukemia
[36] = system: U251 CNS
[37] = system: SR leukemia
[38] = system: HS 578T breast
[39] = system: MDA-MB-231 breast
[40] = system: SF-268 CNS
[41] = system: OVCAR-8 ovarian
[42] = system: NCI-H522 lung
[43] = system: HOP-92 NSCLC
[44] = system: HOP-62 NSCLC
[45] = system: MALME-3M melanoma
[46] = system: HCC-2998 colon
[47] = system: 786-0 renal
[48] = system: SK-MEL-2 melanoma
[49] = system: SN12C renal
[50] = system: SNB-75 CNS
[51] = system: MCF7 breast
[52] = system: ACHN renal
[53] = system: SK-OV-3 ovarian
[54] = system: HCT-15 colon
[55] = system: OVCAR-4 ovarian
[56] = system: LOX IMVI melanoma
[57] = system: M14 melanoma
[58] = system: NCI-H460 lung
[59] = system: MDA-N

Cc1cc(I)cc(CN(C)CCCN2CCCCCCC2)c1O
GI50 [1]: 20.4 µM
TGI [1]: 44.5 µM
GI50 [2]: 14.8 µM
TGI [2]: 29.1 µM
GI50 [3]: 13.8 µM
TGI [3]: 28 µM
GI50 [4]: 13.2 µM
TGI [4]: 30.1 µM
GI50 [5]: 11.8 µM
TGI [5]: 28.3 µM
GI50 [6]: 14.3 µM
TGI [6]: 35.1 µM
GI50 [7]: 13.4 µM
TGI [7]: 27 µM
GI50 [8]: 15.4 µM
TGI [8]: 32 µM
GI50 [9]: 17.2 µM
TGI [9]: 32.9 µM
GI50 [10]: 11.8 µM
TGI [10]: 26.2 µM
GI50 [11]: 17.4 µM
TGI [11]: 37.1 µM
GI50 [12]: 14.2 µM
TGI [12]: 31 µM
GI50 [13]: 7.9 µM
TGI [13]: 24.2 µM
GI50 [14]: 6 µM
TGI [14]: 18 µM
GI50 [15]: 6.26 µM
TGI [15]: 21.1 µM
GI50 [16]: 20.1 µM
TGI [16]: 45.3 µM
GI50 [17]: 2.46 µM
TGI [17]: 23.8 µM
GI50 [18]: 7.38 µM
TGI [18]: 23 µM
GI50 [19]: 16.3 µM
TGI [19]: 35 µM
GI50 [20]: 3.7 µM
TGI [20]: 19.9 µM
GI50 [21]: 16 µM
TGI [21]: 37.6 µM
GI50 [22]: 15.8 µM
TGI [22]: 32.7 µM
GI50 [23]: 17.8 µM
TGI [23]: 38 µM
GI50 [24]: 18.1 µM
TGI [24]: 48.7 µM
GI50 [25]: 15.3 µM
TGI [25]: 31.2 µM
GI50 [26]: 13.1 µM
TGI [26]: 26.7 µM
GI50 [27]: 15.1 µM
TGI [27]: 29.2 µM
GI50 [28]: 18.8 µM
TGI [28]: 41.5 µM
GI50 [29]: 6.94 µM
TGI [29]: 19.4 µM
GI50 [30]: 2.26 µM
TGI [30]: 7.97 µM
GI50 [31]: 20.1 µM
TGI [31]: 45.5 µM
GI50 [32]: 19.6 µM
TGI [32]: 52.8 µM
GI50 [33]: 16.2 µM
TGI [33]: 30.8 µM
GI50 [34]: 16.2 µM
TGI [34]: 34.3 µM
GI50 [35]: 6.22 µM
TGI [35]: 21.9 µM
GI50 [36]: 15 µM
TGI [36]: 29.2 µM
GI50 [37]: 2.11 µM
TGI [37]: 14.6 µM
GI50 [38]: 15.7 µM
TGI [38]: 33.7 µM
GI50 [39]: 14.9 µM
TGI [39]: 29.6 µM
GI50 [40]: 14.9 µM
TGI [40]: 31.3 µM
GI50 [41]: 19.8 µM
TGI [41]: 43.4 µM
GI50 [42]: 19.3 µM
TGI [42]: 38.4 µM
GI50 [43]: 11.6 µM
TGI [43]: 29.8 µM
GI50 [44]: 16.4 µM
TGI [44]: 32.2 µM
GI50 [45]: 19.5 µM
TGI [45]: 36.1 µM
GI50 [46]: 18.1 µM
TGI [46]: 36.8 µM
GI50 [47]: 12.7 µM
TGI [47]: 26.3 µM
GI50 [48]: 21.8 µM
TGI [48]: 41.7 µM
GI50 [49]: 18 µM
TGI [49]: 41.1 µM
GI50 [50]: 15.4 µM
TGI [50]: 30.2 µM
GI50 [51]: 14.2 µM
TGI [51]: 30.6 µM
GI50 [52]: 18.1 µM
TGI [52]: 32.4 µM
GI50 [53]: 18.7 µM
TGI [53]: 35.9 µM
GI50 [54]: 10.9 µM
TGI [54]: 23.3 µM
GI50 [55]: 19.7 µM
TGI [55]: 58.5 µM
GI50 [56]: 16.2 µM
TGI [56]: 30.9 µM
GI50 [57]: 15.5 µM
TGI [57]: 33.2 µM
GI50 [58]: 13.7 µM
TGI [58]: 28.3 µM

c1nc(OCC2CCCCC2)c2[nH]cnc2n1
TGI [1]: > 100 µM
TGI [2]: > 100 µM
TGI [3]: > 100 µM
TGI [4]: > 100 µM
TGI [5]: > 100 µM
TGI [6]: > 100 µM
TGI [7]: > 100 µM
TGI [59]: > 100 µM
TGI [8]: > 100 µM
TGI [10]: > 100 µM
TGI [11]: > 100 µM
TGI [12]: > 100 µM
TGI [13]: > 100 µM
TGI [14]: > 100 µM
TGI [15]: > 100 µM
TGI [16]: > 100 µM
TGI [17]: > 100 µM
TGI [18]: > 100 µM
TGI [19]: > 100 µM
TGI [20]: > 100 µM
TGI [21]: > 100 µM
TGI [22]: > 100 µM
TGI [23]: > 100 µM
TGI [24]: > 100 µM
TGI [25]: > 100 µM
TGI [26]: > 100 µM
TGI [27]: > 100 µM
TGI [28]: > 100 µM
TGI [29]: > 100 µM
TGI [30]: > 100 µM
TGI [31]: > 100 µM
TGI [33]: > 100 µM
TGI [34]: > 100 µM
TGI [35]: > 100 µM
TGI [36]: > 100 µM
TGI [38]: > 100 µM
TGI [39]: > 100 µM
TGI [40]: > 100 µM
TGI [41]: > 100 µM
TGI [42]: > 100 µM
TGI [43]: > 100 µM
TGI [44]: > 100 µM
TGI [45]: > 100 µM
TGI [46]: > 100 µM
TGI [47]: > 100 µM
TGI [48]: > 100 µM
TGI [49]: > 100 µM
TGI [50]: > 100 µM
TGI [52]: > 100 µM
TGI [53]: > 100 µM
TGI [54]: > 100 µM
TGI [55]: > 100 µM
TGI [56]: > 100 µM
TGI [57]: > 100 µM
TGI [58]: > 100 µM
